{"source": "PubChem BioAssay (NCI)", "experiment_in_all_cases": "NCI tumour cell line growth inhibition, 48 h", "key": {"ACHN renal": {"tested_on": "ACHN renal"}, "NCI-H226 lung": {"tested_on": "NCI-H226 lung"}, "NCI-H522 lung": {"tested_on": "NCI-H522 lung"}, "SNB-75 CNS": {"tested_on": "SNB-75 CNS"}, "SK-OV-3 ovarian": {"tested_on": "SK-OV-3 ovarian"}, "SK-MEL-2 melanoma": {"tested_on": "SK-MEL-2 melanoma"}, "IGROV1 ovarian": {"tested_on": "IGROV1 ovarian"}, "HOP-62 NSCLC": {"tested_on": "HOP-62 NSCLC"}, "RXF 393 renal": {"tested_on": "RXF 393 renal"}, "HCT-116 colon": {"tested_on": "HCT-116 colon"}, "HCT-15 colon": {"tested_on": "HCT-15 colon"}, "CAKI-1 renal": {"tested_on": "CAKI-1 renal"}, "OVCAR-8 ovarian": {"tested_on": "OVCAR-8 ovarian"}, "UO-31 renal": {"tested_on": "UO-31 renal"}, "NCI-H23 lung": {"tested_on": "NCI-H23 lung"}, "T-47D breast": {"tested_on": "T-47D breast"}, "UACC-257 melanoma": {"tested_on": "UACC-257 melanoma"}, "NCI-H460 lung": {"tested_on": "NCI-H460 lung"}, "COLO 205 colon": {"tested_on": "COLO 205 colon"}, "MDA-MB-231 breast": {"tested_on": "MDA-MB-231 breast"}, "SNB-19 CNS": {"tested_on": "SNB-19 CNS"}, "OVCAR-5 ovarian": {"tested_on": "OVCAR-5 ovarian"}, "A498 renal": {"tested_on": "A498 renal"}, "SK-MEL-28 melanoma": {"tested_on": "SK-MEL-28 melanoma"}, "U251 CNS": {"tested_on": "U251 CNS"}, "SK-MEL-5 melanoma": {"tested_on": "SK-MEL-5 melanoma"}, "SN12C renal": {"tested_on": "SN12C renal"}, "HOP-92 NSCLC": {"tested_on": "HOP-92 NSCLC"}}, "note": "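The compound was tested at five concentrations on cells cultured in 96-well plates, with a 48-hour exposure period. GI50 is the concentration that inhibits growth by half. TGI marks complete inhibition of growth.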", "data": [{"smiles": "O=S(O)O.O=S(O)O.[Co].[NH2-].[NH2-].[NH2-].[NH2-]", "values": [{"measurement": "GI50", "setting": "ACHN renal", "value": "> 100", "unit": "µM"}, {"measurement": "TGI", "setting": "ACHN renal", "value": "> 100", "unit": "µM"}, {"measurement": "GI50", "setting": "NCI-H226 lung", "value": "> 100", "unit": "µM"}, {"measurement": "TGI", "setting": "NCI-H226 lung", "value": "> 100", "unit": "µM"}, {"measurement": "GI50", "setting": "NCI-H522 lung", "value": "> 100", "unit": "µM"}, {"measurement": "TGI", "setting": "NCI-H522 lung", "value": "> 100", "unit": "µM"}, {"measurement": "GI50", "setting": "SNB-75 CNS", "value": "> 100", "unit": "µM"}, {"measurement": "TGI", "setting": "SNB-75 CNS", "value": "> 100", "unit": "µM"}, {"measurement": "GI50", "setting": "SK-OV-3 ovarian", "value": "> 100", "unit": "µM"}, {"measurement": "TGI", "setting": "SK-OV-3 ovarian", "value": "> 100", "unit": "µM"}, {"measurement": "GI50", "setting": "SK-MEL-2 melanoma", "value": "> 100", "unit": "µM"}, {"measurement": "TGI", "setting": "SK-MEL-2 melanoma", "value": "> 100", "unit": "µM"}, {"measurement": "GI50", "setting": "IGROV1 ovarian", "value": "> 100", "unit": "µM"}, {"measurement": "TGI", "setting": "IGROV1 ovarian", "value": "> 100", "unit": "µM"}, {"measurement": "GI50", "setting": "HOP-62 NSCLC", "value": "> 100", "unit": "µM"}, {"measurement": "TGI", "setting": "HOP-62 NSCLC", "value": "> 100", "unit": "µM"}, {"measurement": "GI50", "setting": "RXF 393 renal", "value": "> 100", "unit": "µM"}, {"measurement": "TGI", "setting": "RXF 393 renal", "value": "> 100", "unit": "µM"}, {"measurement": "GI50", "setting": "HCT-116 colon", "value": "> 100", "unit": "µM"}, {"measurement": "TGI", "setting": "HCT-116 colon", "value": "> 100", "unit": "µM"}, {"measurement": "GI50", "setting": "HCT-15 colon", "value": "> 100", "unit": "µM"}, {"measurement": "TGI", "setting": "HCT-15 colon", "value": "> 100", "unit": "µM"}, {"measurement": "GI50", "setting": "CAKI-1 renal", "value": "> 100", "unit": "µM"}, {"measurement": "TGI", "setting": "CAKI-1 renal", "value": "> 100", "unit": "µM"}, {"measurement": "GI50", "setting": "OVCAR-8 ovarian", "value": "> 100", "unit": "µM"}, {"measurement": "TGI", "setting": "OVCAR-8 ovarian", "value": "> 100", "unit": "µM"}, {"measurement": "GI50", "setting": "UO-31 renal", "value": "> 100", "unit": "µM"}, {"measurement": "TGI", "setting": "UO-31 renal", "value": "> 100", "unit": "µM"}, {"measurement": "GI50", "setting": "NCI-H23 lung", "value": "> 100", "unit": "µM"}, {"measurement": "TGI", "setting": "NCI-H23 lung", "value": "> 100", "unit": "µM"}, {"measurement": "GI50", "setting": "T-47D breast", "value": "> 100", "unit": "µM"}, {"measurement": "TGI", "setting": "T-47D breast", "value": "> 100", "unit": "µM"}, {"measurement": "GI50", "setting": "UACC-257 melanoma", "value": "> 100", "unit": "µM"}, {"measurement": "TGI", "setting": "UACC-257 melanoma", "value": "> 100", "unit": "µM"}, {"measurement": "GI50", "setting": "NCI-H460 lung", "value": "> 100", "unit": "µM"}, {"measurement": "TGI", "setting": "NCI-H460 lung", "value": "> 100", "unit": "µM"}, {"measurement": "GI50", "setting": "COLO 205 colon", "value": "> 100", "unit": "µM"}, {"measurement": "TGI", "setting": "COLO 205 colon", "value": "> 100", "unit": "µM"}, {"measurement": "GI50", "setting": "MDA-MB-231 breast", "value": "> 100", "unit": "µM"}, {"measurement": "TGI", "setting": "MDA-MB-231 breast", "value": "> 100", "unit": "µM"}, {"measurement": "GI50", "setting": "SNB-19 CNS", "value": "> 100", "unit": "µM"}, {"measurement": "TGI", "setting": "SNB-19 CNS", "value": "> 100", "unit": "µM"}, {"measurement": "GI50", "setting": "OVCAR-5 ovarian", "value": "> 100", "unit": "µM"}, {"measurement": "TGI", "setting": "OVCAR-5 ovarian", "value": "> 100", "unit": "µM"}, {"measurement": "GI50", "setting": "A498 renal", "value": "> 100", "unit": "µM"}, {"measurement": "TGI", "setting": "A498 renal", "value": "> 100", "unit": "µM"}, {"measurement": "GI50", "setting": "SK-MEL-28 melanoma", "value": "> 100", "unit": "µM"}, {"measurement": "TGI", "setting": "SK-MEL-28 melanoma", "value": "> 100", "unit": "µM"}, {"measurement": "GI50", "setting": "U251 CNS", "value": "> 100", "unit": "µM"}, {"measurement": "TGI", "setting": "U251 CNS", "value": "> 100", "unit": "µM"}, {"measurement": "GI50", "setting": "SK-MEL-5 melanoma", "value": "> 100", "unit": "µM"}, {"measurement": "TGI", "setting": "SK-MEL-5 melanoma", "value": "> 100", "unit": "µM"}, {"measurement": "GI50", "setting": "SN12C renal", "value": "> 100", "unit": "µM"}, {"measurement": "TGI", "setting": "SN12C renal", "value": "> 100", "unit": "µM"}, {"measurement": "GI50", "setting": "HOP-92 NSCLC", "value": "> 100", "unit": "µM"}, {"measurement": "TGI", "setting": "HOP-92 NSCLC", "value": "> 100", "unit": "µM"}]}]}
